Assay: xn = mol fraction of the nth substance listed
Conditions: Liquid; for mass density: Vibrating tube method; for viscosity: Concentric cylinders viscometry

Cc1ccc(C)c(C)c1 [1,2,4-trimethylbenzene] + CCCCO
Conditions | mass density [kg/m3] | viscosity [mPa·s]
273.15 K, 60000 kPa, x2 = 0.1005 | 917.1 | –
273.15 K, 60000 kPa, x2 = 0.2261 | 910.9 | –
273.15 K, 60000 kPa, x2 = 0.2999 | 907.2 | –
273.15 K, 60000 kPa, x2 = 0.3966 | 901.8 | –
273.15 K, 60000 kPa, x2 = 0.5289 | 894.1 | –
273.15 K, 60000 kPa, x2 = 0.6367 | 887 | –
273.15 K, 60000 kPa, x2 = 0.7249 | 880.8 | –
273.15 K, 60000 kPa, x2 = 0.7977 | 875.2 | –
273.15 K, 60000 kPa, x2 = 0.9131 | 865.5 | –
273.15 K, 70000 kPa, x2 = 0 | 926.2 | –
273.15 K, 70000 kPa, x2 = 0.1005 | 921.4 | –
273.15 K, 70000 kPa, x2 = 0.2261 | 915.1 | –
273.15 K, 70000 kPa, x2 = 0.2999 | 911.4 | –
273.15 K, 70000 kPa, x2 = 0.3966 | 906.1 | –
273.15 K, 70000 kPa, x2 = 0.5289 | 898.5 | –
273.15 K, 70000 kPa, x2 = 0.6367 | 891.4 | –
273.15 K, 70000 kPa, x2 = 0.7249 | 885.2 | –
273.15 K, 70000 kPa, x2 = 0.7977 | 879.7 | –
273.15 K, 70000 kPa, x2 = 0.9131 | 870.1 | –
273.15 K, 80000 kPa, x2 = 0 | 930.3 | –
273.15 K, 80000 kPa, x2 = 0.1005 | 925.5 | –
273.15 K, 80000 kPa, x2 = 0.2261 | 919.3 | –
273.15 K, 80000 kPa, x2 = 0.2999 | 915.6 | –
273.15 K, 80000 kPa, x2 = 0.3966 | 910.3 | –
273.15 K, 80000 kPa, x2 = 0.5289 | 902.7 | –
273.15 K, 80000 kPa, x2 = 0.6367 | 895.7 | –
273.15 K, 80000 kPa, x2 = 0.7249 | 889.5 | –
273.15 K, 80000 kPa, x2 = 0.7977 | 883.9 | –
273.15 K, 80000 kPa, x2 = 0.9131 | 874.3 | –
273.15 K, 90000 kPa, x2 = 0 | 934.2 | –
273.15 K, 90000 kPa, x2 = 0.1005 | 929.4 | –
273.15 K, 90000 kPa, x2 = 0.2261 | 923.2 | –
273.15 K, 90000 kPa, x2 = 0.2999 | 919.6 | –
273.15 K, 90000 kPa, x2 = 0.3966 | 914.3 | –
273.15 K, 90000 kPa, x2 = 0.5289 | 906.7 | –
273.15 K, 90000 kPa, x2 = 0.6367 | 899.7 | –
273.15 K, 90000 kPa, x2 = 0.7249 | 893.6 | –
273.15 K, 90000 kPa, x2 = 0.7977 | 888 | –
273.15 K, 90000 kPa, x2 = 0.9131 | 878.4 | –
273.15 K, 100000 kPa, x2 = 0 | 938 | –
273.15 K, 100000 kPa, x2 = 0.1005 | 933.3 | –
273.15 K, 100000 kPa, x2 = 0.2261 | 927.1 | –
273.15 K, 100000 kPa, x2 = 0.2999 | 923.4 | –
273.15 K, 100000 kPa, x2 = 0.3966 | 918.2 | –
273.15 K, 100000 kPa, x2 = 0.5289 | 910.6 | –
273.15 K, 100000 kPa, x2 = 0.6367 | 903.6 | –
273.15 K, 100000 kPa, x2 = 0.7249 | 897.5 | –
273.15 K, 100000 kPa, x2 = 0.7977 | 891.9 | –
273.15 K, 100000 kPa, x2 = 0.9131 | 882.3 | –
273.15 K, 120000 kPa, x2 = 0 | 945.2 | –
273.15 K, 120000 kPa, x2 = 0.1005 | 940.6 | –
273.15 K, 120000 kPa, x2 = 0.2261 | 934.5 | –
273.15 K, 120000 kPa, x2 = 0.2999 | 930.8 | –
273.15 K, 120000 kPa, x2 = 0.3966 | 925.6 | –
273.15 K, 120000 kPa, x2 = 0.5289 | 918 | –
273.15 K, 120000 kPa, x2 = 0.6367 | 911.1 | –
273.15 K, 120000 kPa, x2 = 0.7249 | 905 | –
273.15 K, 120000 kPa, x2 = 0.7977 | 899.4 | –
273.15 K, 120000 kPa, x2 = 0.9131 | 889.9 | –
273.15 K, 140000 kPa, x2 = 0 | 952 | –
273.15 K, 140000 kPa, x2 = 0.1005 | 947.3 | –
273.15 K, 140000 kPa, x2 = 0.2261 | 941.3 | –
273.15 K, 140000 kPa, x2 = 0.2999 | 937.7 | –
273.15 K, 140000 kPa, x2 = 0.3966 | 932.5 | –
273.15 K, 140000 kPa, x2 = 0.5289 | 924.9 | –
273.15 K, 140000 kPa, x2 = 0.6367 | 918 | –
273.15 K, 140000 kPa, x2 = 0.7249 | 911.9 | –
273.15 K, 140000 kPa, x2 = 0.7977 | 906.4 | –
273.15 K, 140000 kPa, x2 = 0.9131 | 896.8 | –
293.15 K, 100 kPa, x2 = 0 | 875.1 | 0.888
293.15 K, 100 kPa, x2 = 0.1002 | – | 0.898
293.15 K, 100 kPa, x2 = 0.1005 | 870.2 | –
293.15 K, 100 kPa, x2 = 0.2261 | 863.7 | –
293.15 K, 100 kPa, x2 = 0.2327 | – | 0.949
293.15 K, 100 kPa, x2 = 0.3 | – | 1.001
293.15 K, 100 kPa, x2 = 0.3969 | – | 1.087
293.15 K, 100 kPa, x2 = 0.637 | – | 1.483
293.15 K, 100 kPa, x2 = 0.7975 | – | 1.975
293.15 K, 100 kPa, x2 = 0.9131 | – | 2.464
